Experimental data: ChEMBL document CHEMBL5143606, “Selective Wee1 degradation by PROTAC degraders recruiting VHL and CRBN E3 ubiquitin ligases” (Bioorg Med Chem Lett, 2022)
pIC50: −log10 of the molar value. Calls of active or inactive are those of the source. The rule behind the calls is not given here.

Experiments:
[1] = target: T1, von Hippel-Lindau disease tumor suppressor/Wee1-like protein kinase (Homo sapiens) (UniProt P30291+P40337); assay: PROTAC activity at VHL/Wee1 in human HeLa S3 cells assessed as induction of Wee1 degradation at 1 uM measured after 24 hrs by Western blot analysis relative to control; assay type: cell-based
[2] = target: T1, von Hippel-Lindau disease tumor suppressor/Wee1-like protein kinase (Homo sapiens); assay: PROTAC activity at VHL/Wee1 in human HeLa S3 cells assessed as induction of Wee1 degradation by measuring reduction in phosphorylation of CDK1 at Tyr15 residue at 1 uM measured after 24 hrs by Western blot analysis relative to control; assay type: cell-based; set-up: scale not given: the % may be the effect or the level left
[3] = target: T1, von Hippel-Lindau disease tumor suppressor/Wee1-like protein kinase (Homo sapiens); assay: PROTAC activity at VHL/Wee1 in human HeLa S3 cells assessed as induction of Wee1 degradation at 1 uM measured after 4 hrs by Western blot analysis; assay type: cell-based
[4] = target: T1, von Hippel-Lindau disease tumor suppressor/Wee1-like protein kinase (Homo sapiens); assay: PROTAC activity at VHL/Wee1 in human HeLa S3 cells assessed as induction of Wee1 degradation at 30 to 3000 nM measured after 4 hrs by Western blot analysis; assay type: cell-based; details: dose 30-3000 nM
[5] = target: T1, von Hippel-Lindau disease tumor suppressor/Wee1-like protein kinase (Homo sapiens); assay: PROTAC activity at VHL/Wee1 in human HeLa S3 cells assessed as induction of Wee1 degradation by measuring reduction in phosphorylation of CDK1 at Tyr15 residue at 30 to 10000 nM measured after 4 hrs by Western blot analysis; assay type: cell-based; details: dose 30-10000 nM
[6] = target: T1, von Hippel-Lindau disease tumor suppressor/Wee1-like protein kinase (Homo sapiens); assay: PROTAC activity at VHL/Wee1 in human HeLa S3 cells assessed as induction of Wee1 degradation by measuring reduction in phosphorylation of CDK1 at Tyr15 residue at higher concentration measured after 4 hrs by Western blot analysis; assay type: cell-based
[7] = target: T1, von Hippel-Lindau disease tumor suppressor/Wee1-like protein kinase (Homo sapiens); assay: PROTAC activity at VHL/Wee1 in human HeLa S3 cells assessed as induction of Wee1 degradation at 1 uM measured after 24 to 48 hrs by Western blot analysis; assay type: cell-based; details: time 24-48 hrs
[8] = target: T1, von Hippel-Lindau disease tumor suppressor/Wee1-like protein kinase (Homo sapiens); assay: PROTAC activity at VHL/Wee1 in human HeLa S3 cells assessed as induction of Wee1 degradation by measuring reduction in phosphorylation of CDK1 at Tyr15 residue at 1 uM pretreated with AZD1775 for 2 hrs followed by incubation with compound for 5 hrs by Western blot analysis; assay type: cell-based
[9] = target: T1, von Hippel-Lindau disease tumor suppressor/Wee1-like protein kinase (Homo sapiens); assay: PROTAC activity at VHL/Wee1 in human HeLa S3 cells assessed as induction of Wee1 degradation at 1 uM pretreated with VH298 for 2 hrs followed by incubation with compound for 5 hrs by Western blot analysis; assay type: cell-based
[10] = target: T1, von Hippel-Lindau disease tumor suppressor/Wee1-like protein kinase (Homo sapiens); assay: PROTAC activity at VHL/Wee1 in human PC-3 cells assessed as induction of Wee1 degradation at 100 nM and above concentrations measured after 4 hrs by Western blot analysis; assay type: cell-based
[11] = target: T1, von Hippel-Lindau disease tumor suppressor/Wee1-like protein kinase (Homo sapiens); assay: PROTAC activity at VHL/Wee1 in human PC-3 cells assessed as induction of Wee1 degradation by measuring reduction in CDK1 phosphorylation at Tyr15 residue at 100 nM and above concentrations measured after 4 hrs by Western blot analysis; assay type: cell-based
[12] = target: T1, von Hippel-Lindau disease tumor suppressor/Wee1-like protein kinase (Homo sapiens); assay: PROTAC activity at VHL/Wee1 in human BT-549 cells assessed as induction of Wee1 degradation at 100 nM and above concentrations measured after 4 hrs by Western blot analysis; assay type: cell-based
[13] = target: T1, von Hippel-Lindau disease tumor suppressor/Wee1-like protein kinase (Homo sapiens); assay: PROTAC activity at VHL/Wee1 in human BT-549 cells assessed as induction of Wee1 degradation by measuring reduction in CDK1 phosphorylation at Tyr15 residue at 100 nM and above concentrations measured after 4 hrs by Western blot analysis; assay type: cell-based
[14] = target: T1, von Hippel-Lindau disease tumor suppressor/Wee1-like protein kinase (Homo sapiens); assay: PROTAC activity at VHL/Wee1 in human MCF7 cells assessed as induction of Wee1 degradation at 300 nM and above concentrations measured after 4 hrs by Western blot analysis; assay type: cell-based
[15] = target: T1, von Hippel-Lindau disease tumor suppressor/Wee1-like protein kinase (Homo sapiens); assay: PROTAC activity at VHL/Wee1 in human BT-549 cells assessed as induction of Wee1 degradation by measuring reduction in CDK1 phosphorylation at Tyr15 residue at 300 nM and above concentrations measured after 4 hrs by Western blot analysis; assay type: cell-based; details: MCF7
[16] = target: T1, von Hippel-Lindau disease tumor suppressor/Wee1-like protein kinase (Homo sapiens); assay: PROTAC activity at VHL/Wee1 in human LNCaP cells assessed as induction of Wee1 degradation at 300 nM and above concentrations measured after 4 hrs by Western blot analysis; assay type: cell-based
[17] = target: T1, von Hippel-Lindau disease tumor suppressor/Wee1-like protein kinase (Homo sapiens); assay: PROTAC activity at VHL/Wee1 in human LNCaP cells assessed as induction of Wee1 degradation by measuring reduction in CDK1 phosphorylation at Tyr15 residue at 300 nM and above concentrations measured after 4 hrs by Western blot analysis; assay type: cell-based
MCF7 = assay: Antiproliferative activity against human MCF7 cells assessed as inhibition of cell growth measured after 72 hrs by MTS assay; assay type: functional, cell-based; details: MCF7, 72 h
BT-549 = assay: Antiproliferative activity against human BT-549 cells assessed as inhibition of cell growth measured after 72 hrs by MTS assay; assay type: functional, cell-based; details: BT-549, 72 h
LNCaP = assay: Antiproliferative activity against human LNCaP cells assessed as inhibition of cell growth measured after 72 hrs by MTS assay; assay type: functional, cell-based
PC-3 = assay: Antiproliferative activity against human PC-3 cells assessed as inhibition of cell growth measured after 72 hrs by MTS assay; assay type: functional, cell-based; details: PC-3, 72 h
[18] = target: T2, Protein cereblon/Wee1-like protein kinase (Homo sapiens) (UniProt P30291+Q96SW2); assay: PROTAC activity at CRBN/Wee1 in human HeLa S3 cells assessed as induction of Wee1 degradation at 1 uM measured after 24 hrs by Western blot analysis relative to control; assay type: cell-based
[19] = target: T2, Protein cereblon/Wee1-like protein kinase (Homo sapiens); assay: PROTAC activity at CRBN/Wee1 in human HeLa S3 cells assessed as induction of Wee1 degradation by measuring reduction in phosphorylation of CDK1 at Tyr15 residue at 1 uM measured after 24 hrs by Western blot analysis relative to control; assay type: cell-based; set-up: scale not given: the % may be the effect or the level left
[20] = target: T2, Protein cereblon/Wee1-like protein kinase (Homo sapiens); assay: PROTAC activity at CRBN/Wee1 in human HeLa S3 cells assessed as induction of Wee1 degradation at 1 uM measured after 4 hrs by Western blot analysis; assay type: cell-based
[21] = target: T2, Protein cereblon/Wee1-like protein kinase (Homo sapiens); assay: PROTAC activity at CRBN/Wee1 in human HeLa S3 cells assessed as induction of Wee1 degradation at 30 to 10000 nM measured after 4 hrs by Western blot analysis; assay type: cell-based; details: dose 30-10000 nM
[22] = target: T2, Protein cereblon/Wee1-like protein kinase (Homo sapiens); assay: PROTAC activity at CRBN/Wee1 in human HeLa S3 cells assessed as induction of Wee1 degradation by measuring reduction in phosphorylation of CDK1 at Tyr15 residue at 100 to 10000 nM measured after 4 hrs by Western blot analysis; assay type: cell-based; details: dose 100-10000 nM
[23] = target: T2, Protein cereblon/Wee1-like protein kinase (Homo sapiens); assay: PROTAC activity at CRBN/Wee1 in human HeLa S3 cells assessed as induction of Wee1 degradation by measuring reduction in phosphorylation of CDK1 at Tyr15 residue at 1 uM pretreated with AZD1775 for 2 hrs followed by incubation with compound for 5 hrs by Western blot analysis; assay type: cell-based
[24] = target: T2, Protein cereblon/Wee1-like protein kinase (Homo sapiens); assay: PROTAC activity at CRBN/Wee1 in human HeLa S3 cells assessed as induction of Wee1 degradation at 1 uM pretreated with pomalidomide for 2 hrs followed by incubation with compound for 5 hrs by Western blot analysis; assay type: cell-based
[25] = target: T2, Protein cereblon/Wee1-like protein kinase (Homo sapiens); assay: PROTAC activity at CRBN/Wee1 in human PC-3 cells assessed as induction of Wee1 degradation at 100 nM and above concentrations measured after 4 hrs by Western blot analysis; assay type: cell-based
[26] = target: T2, Protein cereblon/Wee1-like protein kinase (Homo sapiens); assay: PROTAC activity at CRBN/Wee1 in human PC-3 cells assessed as induction of Wee1 degradation by measuring reduction in CDK1 phosphorylation at Tyr15 residue at 100 nM and above concentrations measured after 4 hrs by Western blot analysis; assay type: cell-based
[27] = target: T2, Protein cereblon/Wee1-like protein kinase (Homo sapiens); assay: PROTAC activity at CRBN/Wee1 in human BT-549 cells assessed as induction of Wee1 degradation at 100 nM and above concentrations measured after 4 hrs by Western blot analysis; assay type: cell-based
[28] = target: T2, Protein cereblon/Wee1-like protein kinase (Homo sapiens); assay: PROTAC activity at CRBN/Wee1 in human BT-549 cells assessed as induction of Wee1 degradation by measuring reduction in CDK1 phosphorylation at Tyr15 residue at 100 nM and above concentrations measured after 4 hrs by Western blot analysis; assay type: cell-based
[29] = target: T2, Protein cereblon/Wee1-like protein kinase (Homo sapiens); assay: PROTAC activity at CRBN/Wee1 in human MCF7 cells assessed as induction of Wee1 degradation at 300 nM and above concentrations measured after 4 hrs by Western blot analysis; assay type: cell-based
[30] = target: T2, Protein cereblon/Wee1-like protein kinase (Homo sapiens); assay: PROTAC activity at CRBN/Wee1 in human BT-549 cells assessed as induction of Wee1 degradation by measuring reduction in CDK1 phosphorylation at Tyr15 residue at 300 nM and above concentrations measured after 4 hrs by Western blot analysis; assay type: cell-based; details: MCF7
[31] = target: T2, Protein cereblon/Wee1-like protein kinase (Homo sapiens); assay: PROTAC activity at CRBN/Wee1 in human LNCaP cells assessed as induction of Wee1 degradation at 300 nM and above concentrations measured after 4 hrs by Western blot analysis; assay type: cell-based
[32] = target: T2, Protein cereblon/Wee1-like protein kinase (Homo sapiens); assay: PROTAC activity at CRBN/Wee1 in human LNCaP cells assessed as induction of Wee1 degradation by measuring reduction in CDK1 phosphorylation at Tyr15 residue at 300 nM and above concentrations measured after 4 hrs by Western blot analysis; assay type: cell-based

Structure (SMILES): C=CCn1c(=O)c2cnc(Nc3ccc(N4CCN(CCCC(=O)N[C@H](C(=O)N5C[C@H](O)C[C@H]5C(=O)NCc5ccc(-c6scnc6C)cc5)C(C)(C)C)CC4)cc3)nc2n1-c1cccc(C(C)(C)O)n1
- Activity [1]: 34%
- Activity [2]: 49%
- Activity [3]: Active
- Activity [4]: Active
- Activity [5]: Active
- Activity [6]: Active
- Activity [7]: Active
- Activity [8]: Active
- Activity [9]: Active
- Activity [10]: Active
- Activity [11]: Active
- Activity [12]: Active
- Activity [13]: Active
- Activity [14]: Active
- Activity [15]: Active
- Activity [16]: Active
- Activity [17]: Active
- pIC50 (MCF7): 5.15
- pIC50 (BT-549): 5.62
- pIC50 (LNCaP): 5.28
- pIC50 (PC-3): < 4.70

Structure (SMILES): C=CCn1c(=O)c2cnc(Nc3ccc(N4CCN(CCCC(=O)NCCOCCOCCNc5cccc6c5C(=O)N(C5CCC(=O)NC5=O)C6=O)CC4)cc3)nc2n1-c1cccc(C(C)(C)O)n1 (stereo not given)
- Activity [18]: 27%
- Activity [19]: 51%
- Activity [20]: Active
- Activity [21]: Active
- Activity [22]: Active
- Activity [23]: Active
- Activity [24]: Active
- Activity [25]: Active
- Activity [26]: Active
- Activity [27]: Active
- Activity [28]: Active
- Activity [29]: Active
- Activity [30]: Active
- Activity [31]: Active
- Activity [32]: Active
- pIC50 (MCF7): 4.85
- pIC50 (BT-549): 5.10
- pIC50 (LNCaP): 4.78
- pIC50 (PC-3): < 4.70
